Measurements taken from patent US8865725B2, “Substituted imidazopyrimidin-5(6H)-ones as allosteric modulators of MGLUR5 receptors” (Vanderbilt University, priority 2011, dated 2014).
Where two headings read alike, the source gives them in different places.

Legend:
human mGluR5a receptor = human mGluR5a receptor (Homo sapiens, UniProt P41594); assay: Cell-based functional assay (Ca2+ mobilization, FDSS) for positive allosteric modulation of mGluR5; conditions: for EC50: potentiation in presence of EC20 glutamate; for Emax: maximum % effect in concentration-response curve, as percent of response to maximally effective glutamate concentration
Chain of human mGluR5a receptor (P41594 21-1180 isoform P41594-2 limits assumed): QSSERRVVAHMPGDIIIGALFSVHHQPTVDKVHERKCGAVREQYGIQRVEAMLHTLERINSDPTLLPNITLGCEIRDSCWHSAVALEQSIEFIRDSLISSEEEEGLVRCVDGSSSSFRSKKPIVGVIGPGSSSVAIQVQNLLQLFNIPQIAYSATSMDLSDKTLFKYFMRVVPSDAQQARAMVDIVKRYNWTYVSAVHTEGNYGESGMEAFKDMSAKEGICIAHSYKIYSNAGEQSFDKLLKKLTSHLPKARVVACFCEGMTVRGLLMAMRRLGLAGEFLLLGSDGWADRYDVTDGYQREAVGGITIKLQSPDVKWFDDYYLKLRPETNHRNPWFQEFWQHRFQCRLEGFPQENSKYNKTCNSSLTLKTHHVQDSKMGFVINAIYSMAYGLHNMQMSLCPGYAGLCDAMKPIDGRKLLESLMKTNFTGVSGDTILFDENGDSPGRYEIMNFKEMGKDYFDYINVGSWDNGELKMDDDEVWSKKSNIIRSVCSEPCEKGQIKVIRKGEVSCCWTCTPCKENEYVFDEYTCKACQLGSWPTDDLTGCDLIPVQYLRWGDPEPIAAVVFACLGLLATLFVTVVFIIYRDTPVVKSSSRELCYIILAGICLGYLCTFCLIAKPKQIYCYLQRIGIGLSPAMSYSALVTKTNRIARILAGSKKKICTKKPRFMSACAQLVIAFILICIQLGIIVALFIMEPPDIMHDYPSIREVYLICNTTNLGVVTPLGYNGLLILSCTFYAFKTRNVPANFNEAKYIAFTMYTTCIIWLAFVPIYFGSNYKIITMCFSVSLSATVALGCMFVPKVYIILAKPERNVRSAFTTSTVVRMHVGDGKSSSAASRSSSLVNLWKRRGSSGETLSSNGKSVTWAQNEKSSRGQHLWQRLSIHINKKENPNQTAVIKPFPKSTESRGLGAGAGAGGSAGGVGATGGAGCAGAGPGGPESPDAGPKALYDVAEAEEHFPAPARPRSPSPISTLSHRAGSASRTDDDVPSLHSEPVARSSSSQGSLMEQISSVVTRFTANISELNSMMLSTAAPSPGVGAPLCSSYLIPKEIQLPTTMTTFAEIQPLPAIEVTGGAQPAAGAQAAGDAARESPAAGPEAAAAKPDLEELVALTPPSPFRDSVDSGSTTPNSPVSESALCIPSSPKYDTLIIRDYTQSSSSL
Experimental: The mGluR5 activity was determined using the metabotropic glutamate receptor activity assays in human embryonic kidney cells as described herein, wherein the human embryonic kidney cells were transfected with human mGluR5. The compounds in Table I were synthesized with methods identical or analogous to those shown herein. The Synthetic Route Reference indicated in Table I refers to the Reaction Scheme number described above. The requisite starting materials were commercially available, described in the literature, or readily synthesized by one skilled in the art of organic synthesis.
Human mGluR5a cDNA in pCMV6-XL6 mammalian expression plasmid was purchased from OriGene Technologies, Inc. (catalogue number SC326357) and subcloned into pcDNA3.1(−). […] Monoclones were named for the species (“H” for human) plus the location on the plate (e.g. “10H”).
HEK cells transfected with the human mGluR5a receptor (H10H or H12H cell line) were plated at 15,000 cells/well in clear-bottomed poly-D-lysine-coated assay plates (BD Falcon) in glutamate-glutamine-free growth medium and incubated overnight at 37° C. and 5% CO2. Cell-lines used were either the H10H or H12H cell-lines expressing the human mGluR5 receptor. The following day, the growth medium was removed and the cells were washed with assay buffer containing 1× Hank's balanced salt solution (Invitrogen, Carlsbad, Calif.), 20 mM HEPES, 2.5 mM probenecid, pH 7.4 and left with 20 μL of this reagent. Following this step, the cells were loaded with calcium indicator dye, fluo-4 AM, to a final concentration of 2 μM and incubated for 40-45 min at 37° C. The dye solution was removed and replaced with assay buffer. Cell plates were held for 10-15 min at room temperature and were then loaded into the Functional Drug Screening System 6000 (FDSS 6000, Hamamatsu, Japan).
After establishment of a fluorescence baseline for about 3 seconds, the compounds of the present invention were added to the cells, and the response in cells was measured. 2.3 minutes later an EC20 concentration of the mGluR5 receptor agonist glutamate was added to the cells, and the response of the cells was measured for about 1.7 minutes. All test compounds were dissolved and diluted to a concentration of 10 mM in 100% DMSO and then serially diluted into assay buffer for a 2× stock solution in 0.6% DMSO; stock compounds were then added to the assay for a final DMSO concentration of 0.3% after the first addition to the assay well. Calcium fluorescence measures were recorded as fold over basal fluorescence; raw data was then normalized to the maximal response to glutamate.
The concentration-response curves of compounds of the present invention, obtained in the presence of EC20 of mGluR5 receptor agonist glutamate to determine positive allosteric modulation, were generated using Microsoft Excel with IDBS XLfit add-ins. The raw data file containing all time points was used as the data source in the analysis template. This was saved by the FDSS as a tab-delimitted text file. Data were normalized using a static ratio function (F/F0) for each measurement of the total 350 values per well divided by each well's initial value. Data was then reduced as to peak amplitudes (Max—Initial Min) using a time range that starts approximately 1 second after the glutamate EC20 addition and continues for approximately 40 seconds. This is sufficient time to capture the peak amplitude of the cellular Calcium response. Individual amplitudes were expressed as % EMax by multiplying each amplitude by 100 and then dividing the product by the mean of the amplitudes derived from the glutamate ECMax-treated wells. pEC50 values for test compounds were generated by fitting the normalized values versus the log of the test compound concentration (in mol/L) using a 4 parameter logistic equation where none of the parameters were fixed.

[1] = HEK cells transfected with human mGluR5a (H10H or H12H), concentration in mol/L, read-out: pEC50 (converted)
[2] = HEK cells transfected with human mGluR5a (H10H or H12H), read-out: EC50
[3] = EC50 (nM), HEK cells transfected with human mGluR5a (H10H or H12H)
[4] = pEC50, HEK cells transfected with human mGluR5a (H10H or H12H), concentration in mol/L

Row | melting point | EC50 (human mGluR5a receptor; [1]) | EC50 (human mGluR5a receptor; [2]) | Emax (human mGluR5a receptor) | Structure (SMILES) | EC50 (human mGluR5a receptor; [3]) | EC50 (human mGluR5a receptor; [4])
1 | 203.1 °C | 331 nM | 327 nM | 60% | Cc1cc(-n2ccc3nc(COc4ccccc4)cn3c2=O)ncc1F [compound 23] |  | 
2 | 182.3 °C | 170 nM | 188 nM | 68% | O=C1N(c2ccc(F)cc2)CCc2nc(COc3ccc(F)cc3)cn21 [compound 35, 2-(4-fluoro-phenoxymethyl)-6-(4-fluoro-phenyl)-7,8-dihydro-6H-imidazo[1,2-c]pyrimidin-5-one] |  | 
3 | 189.4 °C |  | > 10000 nM |  | N#Cc1ccc(OCc2cn3c(=O)n(-c4cccc(C(F)(F)F)c4)ccc3n2)cc1 [compound 22] |  | 
4 | 200.1 °C |  | > 30200 nM | 17% | O=C1N(c2ccc(F)cc2)CCc2nc(COc3ccccc3)c(Cl)n21 [compound 42, 3-chloro-6-(4-fluoro-phenyl)-2-phenoxymethyl-7,8-dihydro-6H-imidazo[1,2-c]pyrimidin-5-one] |  | 
5 | 199.5 °C |  | 292 nM | 70% | Cc1nc(-n2ccc3nc(COc4ccccc4)cn3c2=O)ccc1F [compound 10] |  | 
6 | 110.7 °C | 85.1 nM | 78 nM | 73% | O=c1n(-c2ccc(F)cc2)cc(F)c2nc(COc3ccccc3)cn12 [compound 20] |  | 
7 | 169.3 °C | 204 nM | 191 nM | 48% | Cc1cccc(OCc2cn3c(n2)CCN(c2ccc(F)cc2)C3=O)c1 [compound 37, 6-(4-fluoro-phenyl)-2-m-tolyloxymethyl-7,8-dihydro-6H-imidazo[1,2-c]pyrimidin-5-one] |  | 
8 | 135 °C | 316 nM | 389 nM | 64% | O=C1N(c2ccc(F)cn2)CCc2nc(COc3ccccc3)cn21 [compound 39] |  | 
9 | 130.9 °C |  | > 10000 nM | 69% | Cn1ccc2nc(COc3ccccc3)cn2c1=O [compound 2] |  | 
10 |  | 513 nM | 468 nM | 33% | Cc1cccc(OCc2cn3c(=O)n(-c4ccc(F)cc4)ccc3n2)c1 [compound 12] |  | 
11 |  |  | > 30200 nM | 19% | O=c1[nH]ccc2nc(COc3ccccc3)cn12 [compound 1, 2-phenoxymethyl-6H-imidazo[1,2-c]pyrimidin-5-one] |  | 

Further lines, the molecule ahead of its results:

Row | Structure (SMILES) | melting point | EC50 (human mGluR5a receptor; [1]) | EC50 (human mGluR5a receptor; [2]) | Emax (human mGluR5a receptor) | EC50 (human mGluR5a receptor; [3]) | EC50 (human mGluR5a receptor; [4])
12 | Cc1cn(-c2ccc(F)cc2)c(=O)n2cc(COc3ccccc3)nc12 [compound 27, 6-(4-fluoro-phenyl)-8-methyl-2-phenoxymethyl-6H-imidazo[1,2-c]pyrimidin-5-one] | 146.9 °C |  | > 30200 nM | 16% |  | 
13 | N#Cc1cccc(OCc2cn3c(=O)n(-c4ccc(F)cc4)ccc3n2)c1 [compound 13] | 165 °C |  | 350 nM | 40% |  | 
14 | Cc1ccc(-n2ccc3nc(COc4ccccc4)cn3c2=O)nc1 [compound 11] | 209.4 °C | 1150 nM | 1320 nM | 59% |  | 
15 | O=c1n(-c2ccc(F)c(F)c2)ccc2nc(COc3ccccc3)cn12 [compound 5] | 296.6 °C | 214 nM |  | 79% | 228 nM | 
16 | O=c1n(CC2CC2)ccc2nc(COc3ccccc3)cn12 [compound 17] | 102.1 °C | 1050 nM |  | 51% | 1100 nM | 
17 | Cc1cc(N2CCc3nc(COc4ccccc4)cn3C2=O)ncc1F [compound 40] | 196.5 °C | 269 nM | 351 nM | 61% |  | 
18 | O=C1N(c2cccc(F)c2)CCc2nc(COc3ccccc3)cn21 [compound 32] | > 300 °C | 245 nM |  | 70% | 226 nM | 
19 | Cc1nc(N2CCc3nc(COc4ccccc4)cn3C2=O)ccc1F [compound 38] |  |  | 166 nM | 72% |  | 178 nM
20 | O=c1n(-c2ccc(F)cc2)ccc2nc(COc3ccccc3)cn12 [compound 3] | 142.3 °C | 269 nM | 392 nM | 79% |  | 
21 | O=C1N(c2ccc(F)cc2)CCc2nc(COc3cccc(F)c3)cn21 [compound 34] | 141.1 °C |  | 65 nM | 73% |  | 67.6 nM
22 | O=C1N(c2ccc(F)cc2)CCc2nc(COc3ccccc3)cn21 [compound 31] | 195.2 °C | 102 nM | 97 nM | 71% |  | 
23 | CN(C)c1cccc(-n2ccc3nc(COc4ccccc4)cn3c2=O)n1 [compound 24] | 136 °C | 209 nM | 201 nM | 64% |  | 
24 | O=c1n(-c2ccc(F)cn2)ccc2nc(COc3ccccc3)cn12 [compound 9] |  |  | 490 nM | 75% |  | 
25 | O=c1n(-c2cccc(C(F)(F)F)c2)ccc2nc(COc3ccc(F)cc3)cn12 [compound 16] | > 300 °C | 1170 nM | 1290 nM | 50% |  | 
26 | O=c1n(-c2ccc(F)cc2)ccc2nc(COc3ccc(F)cc3)cn12 [compound 14] | 163.4 °C | 309 nM | 302 nM | 72% |  | 
27 | O=c1n(-c2cccc(C(F)(F)F)c2)ccc2nc(COc3ccc(Cl)cc3)cn12 [compound 21] | 141.8 °C |  | > 10000 nM |  |  | 
28 | O=c1n(-c2ccc(F)cc2)ccc2nc(COc3ccccc3)c(Cl)n12 [compound 29, 3-chloro-6-(4-fluoro-phenyl)-2-phenoxymethyl-6H-imidazo[1,2-c]pyrimidin-5-one] | 170.3 °C |  | > 30200 nM | 17% |  | 
29 | O=c1n(Cc2ccccc2)ccc2nc(COc3ccccc3)cn12 [compound 7] | 122.3 °C |  | 1240 nM | 80% |  | 
30 | O=C1N(c2ccc(F)c(F)c2)CCc2nc(COc3ccccc3)cn21 [compound 33] | 165.4 °C | 102 nM | 97 nM | 75% |  | 
31 | Cc1ccnc(-n2ccc3nc(COc4ccccc4)cn3c2=O)c1 [compound 15] | 239.4 °C | > 10000 nM | 8320 nM | 51% |  | 
32 | COc1nccc(-n2ccc3nc(COc4ccccc4)cn3c2=O)n1 [compound 25, 6-(2-methoxy-pyrimidin-4-yl)-2-phenoxymethyl-6H-imidazo[1,2-c]pyrimidin-5-one] | 171.2 °C |  | 570 nM | 46% |  | 
33 | O=c1n(-c2ccc(F)cc2)ccc2nc(COc3ccccn3)cn12 [compound 18] | 282.3 °C | 2140 nM | 2510 nM | 66% |  | 
34 | Cc1cccc(-n2ccc3nc(COc4ccccc4)cn3c2=O)n1 [compound 8] | > 300 °C | 2190 nM | 2290 nM | 43% |  | 
35 | O=c1n(-c2cccc(F)c2)ccc2nc(COc3ccccc3)cn12 [compound 4] | 123.4 °C |  |  | 68% | 525 nM | 513 nM
36 | Cc1ccc(N2CCc3nc(COc4ccccc4)cn3C2=O)nc1 [compound 36, 6-(5-methyl-pyridin-2-yl)-2-phenoxymethyl-7,8-dihydro-6H-imidazo[1,2-c]pyrimidin-5-one] |  |  | 468 nM | 63% |  | 
